According to patent US12305217B2, “Ex vivo protease activity detection for disease detection/diagnostic, staging, monitoring and treatment” (Sunbird Bio, Inc., priority 2020, dated 2025):
Square brackets hold non-standard residues; d marks the D form. Primed or numbered codes have the meaning given here. Ends that are not written are not given here. CPQ2″ = quencher on the Lys side chain; FAM = fluorescent reporter; PEG2′ = not defined here; CPQ2 = quencher

Tests used:
[1] = test system: NASH-related protease activity in K2EDTA plasma (cathepsin L); experiment: Inhibitor profiling of Probe #102 cleavage in healthy and NASH plasma; type: biochemical, mice; details: for effect of inhibitor on Probe #102 signal: NASH and healthy plasma
Procedure: For this experiment, all plasma samples were prepared individually and diluted 1/10e in PBS with inhibitor added directly to the samples. Inhibitor was prepared at 15× concentration to final. Substrates were diluted in DI water at 18 uM, such that the final concentration on the plate would be 6 uM. All samples were prepared such that their last dilution on the plate would not affect the desired final concentration. 10 ul of each individual sample was pipetted into their corresponding wells, and the plate was then spun down in the centrifuge at 1500 RPM for 30 seconds to coat the bottom of each well with the sample. 5 ul of the 18 uM substrate solution was pipetted into each well being used on a 384 well plate, and then the plate was spun down in the centrifuge at 1500 rpm for 30 seconds. The plate was placed immediately in the plate reader at 37° C. for a 30-minute-long fluorescence kinetic read at 485/535 extended gain.
To assess the proteolytic cleavage pattern of Probe #102, samples were tested using a pool of broad inhibitors for serine, cysteine, threonine, MMP and aspartic protease family members (broad inhibitor) to assess general protease activity, AEBSF for serine proteases, E64 for cysteine proteases, CTSi for broad cathepsin inhibition of cathepsins L, S, K and B, or specific inhibitors for cathepsin K (L00625), for cathepsin L (SID) or cathepsin B (CA074).

[2] = test system: carboxylesterase 1, phospholipase A2 and lipoprotein lipase; experiment: Spiked recombinant enzymes in human plasma with resorufin oleate as substrate; type: biochemical
[3] = test system: proteases in mouse plasma (caspase activity); experiment: Ex vivo probe cleavage in plasma of Jo2 fulminant hepatitis mice; type: biochemical; details: mouse plasma 3 hours after Jo2 injection
Procedure: Fulminant hepatitis is induced after injection intraperitoneal of monoclonal antibody anti-CD95 (Jo2, BD biosciences, 4 ug/animal), and mouse plasma samples were collected 3 hours after Jo2 injection.

[4] = test system: proteases in COVID plasma; experiment: Ex vivo probe cleavage in COVID and healthy K2EDTA and Lithium Heparin plasma; type: biochemical
[5] = test system: cathepsin and/or MMP protease activities; experiment: Ex vivo probe cleavage in plasma of healthy, NASH regression and NASH progression mice; type: biochemical; details: K2EDTA plasma collected at 20 weeks
Excerpt: Plasma samples were collected from all animals at 20 weeks.
The probes showing the most differentiation in NASH were linked to cathepsin and/or MMP protease activities.

[6] = test system: COVID-related proteases in swab samples; experiment: Ex vivo probe cleavage in COVID positive and negative swab samples; type: biochemical
Granzyme B = Granzyme B (Homo sapiens, UniProt P10144); experiment: Inhibition experiments on Probe #647 signal in COVID swab samples; details: healthy and COVID samples
Chain of Granzyme B (P10144 21-247): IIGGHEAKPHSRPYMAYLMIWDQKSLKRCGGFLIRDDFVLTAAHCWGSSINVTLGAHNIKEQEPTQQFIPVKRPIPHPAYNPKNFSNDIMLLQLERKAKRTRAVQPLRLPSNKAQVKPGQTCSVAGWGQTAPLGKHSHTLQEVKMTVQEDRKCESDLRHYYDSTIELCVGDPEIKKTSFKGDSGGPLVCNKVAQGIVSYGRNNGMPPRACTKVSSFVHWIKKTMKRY

[7] = K2EDTA and Lithium Heparin plasma

NCCc1ccc(S(=O)(=O)F)cc1 [AEBSF]
decrease of NASH signal ([1]; Probe #102, 6 uM, NASH plasma): 65% | decrease of healthy signal ([1]; Probe #102, 6 uM, healthy plasma): 60%

CCCNC(=O)[C@H]1O[C@@H]1C(=O)N[C@H](C(=O)N1CCC[C@H]1C(=O)O)[C@@H](C)CC [CA074]
effect of inhibitor on Probe #102 signal [1]: did not significantly decrease signal

CC(C)C[C@H](NC(=O)[C@H]1O[C@@H]1C(=O)O)C(=O)NCCCCN=C(N)N [Probe E64]
effect of inhibitor on Probe #102 signal [1]: decreased NASH signal significantly

CN1CCN(c2nc(-c3ccc(C(=O)NC4(C(=O)NCC#N)CCCCC4)cc3)cs2)CC1 [Probe L006235]
effect of inhibitor on Probe #102 signal [1]: did not significantly decrease signal

CCCC(=O)O [butyrate]
suitability as substrate for enzyme detection [2]: promising for detection of broad range of enzymes

Probe #8: Caspase centric probe (chain 1 GVDVADGK; chain 2 KKGC; not fully specified; 5-FAM, CPQ2 quencher, PEG2; Description of Artificial Sequence: Synthetic probe; SITE 8 Lysine modified with a CPQ2 quencher; SITE 1 D-Lysine; SITE 2 D-Lysine)
differentiation between healthy and Jo2 samples [3]: show contrast that is specific and sensitive to the Jo2 model

Probe #12: Caspase centric probe (chain 1 GDEVDGK; chain 2 KKGC; not fully specified; 5-FAM, CPQ2 quencher, PEG2; Description of Artificial Sequence: Synthetic probe; SITE 7 Lysine modified with a CPQ2 quencher; SITE 1 D-Lysine; SITE 2 D-Lysine)
differentiation between healthy and Jo2 samples [3]: show contrast that is specific and sensitive to the Jo2 model

Probe #18: Neutrophil elastase substrate (GAAPVGK(CPQ2); not fully specified (N-terminus, C-terminus); also: 5-FAM, PEG2-kk-GC)
differential cleavage between COVID and healthy samples [4, 7]: demonstrated contrast in both sets

Probe #84: Furin substrate (GRVKRGLAGK(CPQ2); not fully specified (N-terminus, C-terminus); also: 5-FAM, PEG2-kk-GC)
differential cleavage between COVID and healthy samples [4, 7]: demonstrated contrast in both sets

Probe #102: a CTSL sensing probe; fluorescent reporter and quencher peptide probe (chain 1 {FAM}-GKPILFFRLKGK(CPQ2″)[PEG2′]; chain 2 [dK][dK]GC; not fully specified; printed as (FAM)-GKPILFFRLKG-K(CPQ2)-PEG2-kk-GC; also: FAM, place not given here)
protease that the probe responds to ([1]; individual cathepsin inhibitors, FIG. 30D-F): specifically responds to the activity of cathepsin L (CTSL) | differentiation among healthy, regression and NASH samples [5]: can differentiate

Probe #409: SARS CoV2 coronavirus substrate (SARS-COV2 3C protease) (GTSAVLQSGFRKGK(CPQ2); not fully specified (N-terminus, C-terminus); also: 5-FAM, PEG2-kk-GC)
differential cleavage between COVID and healthy samples ([4]; K2 EDTA samples): modest contrast

Probe #428: probe used in NASH regression experiment (chain 1 {FAM}-GDRRKKLTQGK(CPQ2″)[PEG2′]; chain 2 [dK][dK]GC; not fully specified; printed as (FAM)-GDRRKKLTQG-K(CPQ2)-(PEG2)-; also: FAM, place not given here)
differentiation among healthy, regression and NASH samples [5]: can differentiate

Probe #462: MMP8 substrate (GKKAKRNALGK(CPQ2); not fully specified (N-terminus, C-terminus); also: FAM, PEG2-DLys-DLys-GC)
differential cleavage between COVID and healthy samples [4, 7]: demonstrated contrast in both sets

Probe #492: ex vivo fluorescent probe used in NASH mouse plasma (chain 1 {FAM}-GQRANSIRVTWGK(CPQ2″)[PEG2′]; chain 2 [dK][dK]GC; not fully specified; printed as (FAM)-GQRANSIRVTWG-K(CPQ2)-(PEG2)-; also: FAM, place not given here)
differentiation among healthy, regression and NASH samples [5]: can differentiate

Probe #647: Caspase centric probe; signal measures Granzyme B activity (chain 1 GAIEPDSGGK(CPQ2); chain 2 [dK][dK]GC-NH2; not fully specified (N-terminus, C-terminus); also: 5FAM, PEG2, linkage of the two chains not given here)
differentiation between healthy and Jo2 samples [3]: show contrast that is specific and sensitive to the Jo2 model | number of active samples ([6]; COVID+ swab samples): 7 | number of active samples ([6]; COVID- swab samples): 1 | difference between COVID+ and COVID- samples ([6]; swabs in saline, p=0.029): significant differences | differentiation among healthy, regression and NASH samples [5]: can differentiate | protease measured by the probe signal (Granzyme B): measures the activity of protease Granzyme B

Resorufin oleate
suitability as substrate for enzyme detection [2]: promising for detection of broad range of enzymes
